Experiments:
AMPKα2β1γ1 complex = target: T1, AMPKα2β1γ1 complex (Homo sapiens, UniProt P54646+Q9Y478); assay: HTRF KinEASE activity assay with bacterially-expressed, phosphorylated purified AMPKα2β1γ1; format: biochemical; settings: varying concentrations, 30 mins incubation, cell free; FIG. 1
T1 construct: His; made in house
Protocol: Varying concentrations of compound 1 and compound 2 were incubated with phosphorylated purified AMPK α2β1γ1 for 30 mins. AMPK activity was determined using the HTRF KinEASE assay kit and results are presented as the ratio of 665/620 nm (STK1 phosphorylation).
The AMPKα2β1γ1 complex was expressed in bacteria and purified through the His-α subunit by nickel purification, purified through gel filtration and phosphorylated by incubation with CaMKKβ, and then further purified through a final gel filtration purification step. Phosphorylated purified AMPK was incubated with varying concentrations of ligand for 30 mins along with substrate and reagents from the HTRF-KinEASE Cisbio assay kit (STK S1 Kit). Phosphorylation of the substrate was measured by incubating with donor and acceptor antibodies for 2 h at room temperature as per the manufacturer's protocol (Coulerie et al., (2016), J Nat Prod. 2016 Nov. 23; 79(11):2856-2864. Epub 2016 Oct. 28.) and phosphorylated peptide detected by performing HTRF. […] Compound 1 is 3-methoxy-6H-benzo[c]chromene-1,8-diol and Compound 2 is 8-methoxy-6H-benzo[c]chromene-3,10-diol.

[1] = test system: AMPK (phosphorylation of ACC) in U-2 OS Flp-In T-REx mammalian cells; assay: pACC HTRF (Cisbio) assay in U-2 OS Flp-In T-REx cells; format: cell-based; settings: varying concentrations, 30 mins at 37 C, FIG. 2
Protocol: U-2 OS cells were treated with varying concentrations of compound 1 or compound 2 for 30 mins at 37 C. Phosphorylation of ACC was assessed using the HTRF Cisbio (pACC kit).
U-2 OS Flp-In T-REx cells were seeded at 50 K in a 96-well plate and left overnight at 37 C in DMEM GlutaMAX (Thermo Fisher Scientific) supplemented with 10% (vol/vol) FBS and 100 U/ml penicillin G, and 100 μg/ml streptomycin. Cells were treated for 30 mins with varying concentrations of Compound 1 in media lacking FBS and then cells were lysed in 50 μl of Cisbio lysis buffer #1 supplemented with blocking solution as per the manufacturer's protocol (Cisbio). Cells were lysed for 30 mins at room temperature before 16 μl of lysate was incubated with 4 μl of the HTRF antibodies (1:40 dilution of the acceptor and donor (p) ACC antibodies, as per the manufacturers protocol). Lysates were incubated overnight with the antibodies before 665 nm/620 nm ratio was determined using a MolecularDevices i3 plate reader (with a HTRF cartridge add-on). The results are plotted as fold activation compared to the respective AMPK complex without any compound.

[2] = test system: AMPK complexes containing β1 WT subunit; assay: pACC HTRF assay in AMPKβ1/β2 double knockout U-2 OS cells stably expressing β1 WT; format: cell-based, human; settings: AMPKβ1β2 double knockout cells stably expressing β1 WT, varying concentrations, 30 mins at 37 C; FIG. 3 and FIG. 4
Protocol: (§1) The β1 WT or β1 S108A mutant were stably expressed in AMPKβ1β2 double knockout cells and treated with varying concentrations of compound 1 or compound 2 for 30 mins at 37 C. Phosphorylation of ACC was assessed using the HTRF Cisbio (pACC kit).
(§2) U-2 OS cells AMPKβ1β2 double knockout cells stably expressing AMPK β1 or β2 were treated with varying concentrations of Compound 1 or compound 2 for 30 mins at 37 C.
(§3) Phosphorylation of ACC was assessed using the HTRF Cisbio (pACC kit).
(§4) AMPKβ1/β2 double knockout U-2 OS Flp-In™ T-Rex™ cell lines were generated and cells were genotyped and analysed by Western blotting to confirm that there was a complete knockout of AMPKβ1/β2. We took these AMPKβ1/β2 double knockout cells, and re-introduced the expression of human β1 wild-type (WT) or a β1 Serine 108 to alanine mutation (S108A). This was achieved using the Flp-In™ system (Invitrogen) present in this cell line and stable cells expressing β1 WT or a β1 S108A mutant were generated according to the manufacturers' protocols.
(§5) Cells stably expressing β1 WT or a β1 S108A mutant were treated with varying concentrations of compound 1 and compound 2 and subjected to the pACC HTRF (Cisbio) assay to determine the level of phosphorylation of the AMPK substrate, ACC, in cell lysates, as in Example 2.
We took AMPKβ1/β2 double knockout cells, and re-introduced the expression of human β1 WT or β2 WT isoforms. […]

[3] = test system: AMPK complexes containing β1 S108A mutation at the ADaM site; assay: pACC HTRF assay in AMPKβ1/β2 double knockout U-2 OS cells stably expressing β1 S108A mutant; format: cell-based, human; settings: AMPKβ1β2 double knockout cells stably expressing β1 S108A mutant, varying concentrations, 30 mins at 37 C; FIG. 3
Protocol: as §1, §4, §5

[4] = test system: AMPK complexes containing the β2 isoform subunit; assay: pACC HTRF assay in AMPKβ1/β2 double knockout U-2 OS cells stably expressing β2 WT; format: cell-based, human; settings: AMPKβ1β2 double knockout cells stably expressing β2 WT isoform, varying concentrations, 30 mins at 37 C; FIG. 4
Protocol: as §2, §3
We took AMPKβ1/β2 double knockout cells, and re-introduced the expression of human β1 WT or β2 WT isoforms. […] Cells stably expressing β1 WT or β2 WT were treated with varying concentrations of compound 1 and compound 2, and subjected to the pACC HTRF (Cisbio) assay to determine the level of phosphorylation of the AMPK substrate, ACC, in cell lysates, as in example 2. […] This activation profile is characteristic of activators that bind to the ADaM site and consistent with previous studies showing that ADaM-site activators have poorer activation of β2-containing complexes in vitro and in cells.

T1 sequence (P54646 whole entry): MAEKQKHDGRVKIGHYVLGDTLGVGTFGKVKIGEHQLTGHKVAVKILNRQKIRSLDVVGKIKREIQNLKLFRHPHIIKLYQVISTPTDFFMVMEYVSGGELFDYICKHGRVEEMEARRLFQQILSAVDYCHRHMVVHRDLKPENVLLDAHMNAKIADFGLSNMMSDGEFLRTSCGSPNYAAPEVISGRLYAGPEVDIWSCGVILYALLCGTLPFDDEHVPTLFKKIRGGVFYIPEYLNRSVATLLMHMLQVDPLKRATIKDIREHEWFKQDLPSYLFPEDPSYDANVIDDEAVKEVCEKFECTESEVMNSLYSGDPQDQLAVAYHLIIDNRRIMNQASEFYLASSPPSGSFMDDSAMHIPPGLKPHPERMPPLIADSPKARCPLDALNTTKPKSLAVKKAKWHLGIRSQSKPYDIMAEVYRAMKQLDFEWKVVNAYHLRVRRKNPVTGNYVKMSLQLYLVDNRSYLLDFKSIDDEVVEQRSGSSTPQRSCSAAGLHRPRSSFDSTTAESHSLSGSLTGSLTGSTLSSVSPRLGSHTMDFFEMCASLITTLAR
T1 sequence (Q9Y478 whole entry): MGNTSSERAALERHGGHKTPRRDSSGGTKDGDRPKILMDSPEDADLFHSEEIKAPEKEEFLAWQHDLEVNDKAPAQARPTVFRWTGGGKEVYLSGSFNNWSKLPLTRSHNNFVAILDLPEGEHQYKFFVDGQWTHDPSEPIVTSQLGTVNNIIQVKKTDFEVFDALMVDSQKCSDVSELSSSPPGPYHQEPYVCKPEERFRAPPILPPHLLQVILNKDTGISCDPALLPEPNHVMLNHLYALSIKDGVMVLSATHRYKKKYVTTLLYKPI
T1 sequence (P54619 whole entry partner): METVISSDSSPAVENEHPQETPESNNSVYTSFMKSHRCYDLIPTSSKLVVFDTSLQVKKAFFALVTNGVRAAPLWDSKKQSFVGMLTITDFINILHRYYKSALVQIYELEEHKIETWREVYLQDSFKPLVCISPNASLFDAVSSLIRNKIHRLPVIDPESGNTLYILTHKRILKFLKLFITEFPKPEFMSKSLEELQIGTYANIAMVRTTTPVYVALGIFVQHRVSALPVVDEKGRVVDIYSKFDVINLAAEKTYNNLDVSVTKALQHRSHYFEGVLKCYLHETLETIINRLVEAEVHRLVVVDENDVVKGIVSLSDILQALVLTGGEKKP

COc1cc(O)c2c(c1)OCc1cc(O)ccc1-2 [Compound 1, 3-methoxy-6H-benzo[c]chromene-1,8-diol]
AMPK activity (665 nm/620 nm ratio, STK1 substrate phosphorylation) (AMPKα2β1γ1 complex): allosterically activate AMPKα2β1γ1 in a dose-dependent manner
Phosphorylation of ACC (fold activation relative to untreated cells) [1]: increase the phosphorylation of the AMPK substrate, ACC, in a dose-dependent manner
Phosphorylation of ACC (pACC, fold increase relative to untreated cells) [2]: able to dose-dependently increase pACC
Phosphorylation of ACC (pACC, fold increase relative to untreated cells) [3]: not able to increase pACC
Phosphorylation of ACC (pACC, fold increase relative to untreated cells) [4]: not able to increase pACC

COc1cc(O)c2c(c1)COc1cc(O)ccc1-2 [Compound 2, 8-methoxy-6H-benzo[c]chromene-3,10-diol]
AMPK activity (665 nm/620 nm ratio, STK1 substrate phosphorylation) (AMPKα2β1γ1 complex): allosterically activate AMPKα2β1γ1 in a dose-dependent manner
Phosphorylation of ACC (fold activation relative to untreated cells) [1]: increase the phosphorylation of the AMPK substrate, ACC, in a dose-dependent manner
Phosphorylation of ACC (pACC, fold increase relative to untreated cells) [2]: able to dose-dependently increase pACC
Phosphorylation of ACC (pACC, fold increase relative to untreated cells) [3]: not able to increase pACC
Phosphorylation of ACC (pACC, fold increase relative to untreated cells) [4]: not able to increase pACC
